The record followed here is patent publication US20130109726A1, “SUSTAINED-RELEASE THERAPEUTIC AGENT FOR HYPERTENSION AND RENAL DYSFUNCTION” (TEIJIN PHARMA LIMITED, priority 2010, published 2013).

Experiment [1] deals with spontaneously hypertensive rats (SHR). The experiment can be described thus: Systolic blood pressure by Tail-Cuff method in spontaneous hypertension model (SHR). In kind it is in vivo, rat. On the procedure:
The effects of the immediate-release and sustained-release administrations of febuxostat in a spontaneous hypertension model were ascertained. Male spontaneously hypertensive rats (SHR) aged 12 weeks were subjected to quarantine for a week or more before used as subjects. From 13 weeks of age, habituation to blood pressure measurement with a Tail-Cuff sphygmomanometer (BP-2000, Visitech systems, Napa Place, N.C., USA) was performed for two weeks. At 15 weeks of age after the completion of the habituation, blood pressure was measured, and the subjects were divided into three groups (10 subjects in each group), such that the systolic blood pressures were evenly distributed. Subsequently, the administrations were started. Group 1, a control group, was given tap water. Group 2 was given febuxostat in drinking water. Group 3 was given febuxostat by oral gavage.
The administration in drinking water was performed by giving the subjects access to an aqueous solution of febuxostat ad libitum. In this manner, prolonged drug exposure to the blood, i.e, sustained-release administration can be accomplished, as compared to a single oral administration. On the other hand, the oral administration was performed by giving a suspension of febuxostat in 0.5% MC solution (with a concentration of febuxostat of 2 mg/mL) at 5 mL/kg by oral gavage. The blood level of the drug rapidly increases after the administration and diclines soon. Thus, immediate-release administration can be accomplished in this manner. After 18 days of administration, systolic blood pressure was measured by the Tail-Cuff method.

Experiment [2] concerns adriamycin-induced nephropathy mouse model. The experiment is described as follows: Urine albumin excretion in adriamycin-induced nephropathy mouse model. The format is in vivo. On the procedure:
The effects of the immediate-release and sustained-release administrations of febuxostat in an adriamycin-induced nephropathy mouse model were ascertained. The adriamycin-induced nephropathy model is known as a renal dysfunction model in which lesions occur in glomerular epithelial cells and proteinuria is observed.
Male BALB/cAnNCrlCrlj mice aged 7 weeks were subjected to quarantine for a week or more before used as subjects.
At 8 weeks of age, a 24-hour urine collection was performed and the concentration of albumin in the collected urine was measured by ELISA. The subjects were divided into three groups, such that the amounts of albumin excretion were evenly distributed. Subsequently, the administrations were started. Group 1, a control group, was given tap water. Group 2 was given febuxostat in drinking water. Group 3 was given febuxostat by oral gavage.
The administration in drinking water was performed by giving the subjects access to an aqueous solution of febuxostat ad libitum. In this manner, prolonged drug exposure, i.e, sustained-release administration can be accomplished, as compared to a single oral administration. On the other hand, the oral administration was performed by giving a suspension of febuxostat in 0.5% MC solution by oral gavage via a tube. The blood level of the drug rapidly increases after the administration and diclines soon. Thus, immediate-release administration can be accomplished in this manner. Following the initiation of dosing on the first day, adriamycin was given to mice via tail vein at 10 mg/kg. Then, the administrations were conducted for 5 consecutive days. A 24-hour urine collection was performed 5 days after onset of drug administration and the amount of albumin in the collected urine was measured as previously described.

On to `Cc1nc(-c2ccc(OCC(C)C)c(C#N)c2)sc1C(=O)O` [febuxostat, 2-(3-cyano-4-isobutyloxyphenyl)-4-methyl-5-thiazole carboxylic acid], for which the “systolic blood pressure (mean±standard error)” value in experiment [1] (Group 2, sustained-release administration, 1.5 mg/kg/day in drinking water, Day 18 of dosing) is 199 ± 3 mmHg; in experiment [1] (Group 2, sustained-release administration, 1.5 mg/kg/day in drinking water, Pre-dose), 203 ± 3 mmHg; in experiment [1] (Group 3, immediate-release administration, 10 mg/kg/day oral gavage, Day 18 of dosing), 217 ± 3 mmHg; in experiment [1] (Group 3, immediate-release administration, 10 mg/kg/day oral gavage, Pre-dose), 201 ± 4 mmHg. Also, the “blood pressure lowering, sustained-release versus immediate-release administration” value in experiment [1] (SHR, 18 days of administration) is given as “blood pressure was more strongly lowered by administering febuxostat in a sustained-release manner”. Further, the “Urine albumin excretion (mean±standard error)” value in experiment [2] (Group 2, sustained-release administration, 3 mg/kg/day in drinking water, Day 0) is recorded as 0.1 ± 0.1 mg/day; in experiment [2] (Group 2, sustained-release administration, 3 mg/kg/day in drinking water, Day 5, adriamycin 10 mg/kg i.v.) it was 9.5 ± 3.9 mg/day; in experiment [2] (Group 3, immediate-release administration, 3 mg/kg/day oral gavage, Day 0) it was 0.1 ± 0.1 mg/day; in experiment [2] (Group 3, immediate-release administration, 3 mg/kg/day oral gavage, Day 5, adriamycin 10 mg/kg i.v.) it was 18.4 ± 9.7 mg/day. In addition, the “amelioration of renal dysfunction, sustained-release versus immediate-release administration” value in experiment [2] (adriamycin-induced nephropathy mice, 5 days of administration) is given as “renal dysfunction was more effectively ameliorated by administering febuxostat in a sustained-manner”.
